Read-outs that look alike come from different tables or passages of the source.
Experiments:
Type in all cases: cell-based
[1] = test system: HCV 3a RLuc cells (NS5A chimeric genotype 1b Con1 replicon with consensus genotype 3a NS5A gene); experiment: microbe, parasite or virus in culture; details: Hepatitis C virus
Method in brief: (§1)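 Replicon cells stably carrying the listed RLuc-encoding dicistronic replicons were seeded and treated with DMSO serial dilutions of compound (10 mM stocks) diluted into culture medium. After 72 h, cells were lysed and Renilla luciferase activity measured. EC50 was derived by non-linear regression.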

[2] = test system: HCV 2b Rluc cells (NS5A chimeric genotype 2a JFH-1 replicon with genotype 2b MD2b-1 NS5A gene, M31 present); experiment: microbe, parasite or virus in culture; details: Hepatitis C virus, read-out: 2b
Method in brief: as §1

[3] = test system: HCV 4a Rluc cells (NS5A chimeric genotype 1b Con1 replicon with genotype 4a NS5A gene); experiment: microbe, parasite or virus in culture; details: Hepatitis C virus, read-out: 4a
Method in brief: as §1

[4] = test system: HCV 2a JFH-1 Rluc cells (dicistronic genotype 2a JFH-1 replicon, RLuc reporter); experiment: microbe, parasite or virus in culture; details: Hepatitis C virus, read-out: 2a JFH
Method in brief: as §1

[5] = test system: HCV 1a RLuc cells (dicistronic genotype 1a H77 replicon, RLuc reporter); experiment: microbe, parasite or virus in culture; details: Hepatitis C virus, read-out: 1a
Method in brief: as §1

[6] = test system: HCV 1b RLuc cells (dicistronic genotype 1b Con1 replicon, RLuc reporter); experiment: microbe, parasite or virus in culture; details: Hepatitis C virus, read-out: 1b (nM)
Method in brief: as §1

[7] = test system: HCV 2a Rluc cells (NS5A chimeric genotype 2a JFH-1 replicon with genotype 2a J6 strain NS5A gene, M31 present); experiment: HCV replicon reporter assay, genotype 2a J6 (M31 present); details: Hepatitis C virus, read-out: 2a J6
Method in brief: as §1

[8] = read-out: 3a, genotype 3a NS5A chimeric replicon
[9] = genotype 2a JFH-1 RLuc replicon
[10] = read-out: 3a, genotype 3a replicon
[11] = read-out: 3a, genotype 3a NS5A chimeric 1b Con1 replicon
[12] = genotype 2a JFH-1 replicon, RLuc reporter
[13] = genotype 1a H77 replicon, RLuc reporter

Row | SMILES | EC50 [1, 8] [nM] | EC50 [2] [nM] | EC50 [3] [nM] | EC50 [4, 9] [nM] | EC50 ([5]; genotype 1a H77 RLuc replicon) [nM] | EC50 [6] [nM] | EC50 [7] [nM] | EC50 [1, 10] [nM] | EC50 ([4]; genotype 2a JFH-1 replicon) [nM] | EC50 ([5]; genotype 1a replicon) [nM] | EC50 [1, 11] [nM] | EC50 [4, 12] [nM] | EC50 [5, 13] [nM]
1 | COC[C@H]1C[C@@H](c2nc3ccc4cc(-c5ccc6c(ccc7nc([C@@H]8C[C@H](C)CN8C(=O)[C@@H](NC(=O)OC)C(C)C)[nH]c76)c5)ccc4c3[nH]2)N(C(=O)[C@H](NC(=O)OC)c2ccccc2)C1 [Example 553] | 0.001 to 0.99 | 0.001 to 0.999 | 0.001 to 0.99 | 0.001 to 0.999 | 0.001 to 0.999 | 0.014 | 0.001 to 0.999 | – | – | – | – | – | –
2 | CC(C)CC(=O)N[C@@H](C(=O)N1CCC[C@H]1c1ncc(-c2cc3c4c(c2)OCc2cc(-c5cnc([C@@H]6CCCN6C(=O)[C@H](NC(=O)CC(C)C)c6ccccc6)[nH]5)cc(c2-4)OC3)[nH]1)c1ccccc1 [Example 481] | – | 0.001 to 0.999 | 0.001 to 0.99 | – | – | 0.058 | 0.001 to 0.999 | 0.001 to 0.99 | 0.001 to 0.999 | 0.001 to 0.999 | – | – | –
3 | CN(C)CC(=O)N[C@@H](C(=O)N1CCC[C@H]1c1ncc(-c2cc3c4c(c2)OCc2cc(-c5cnc([C@@H]6CCCN6C(=O)[C@H](NC(=O)CN(C)C)c6ccccc6)[nH]5)cc(c2-4)OC3)[nH]1)c1ccccc1 [Example 462] | – | 1 to 44 | 1 to 4.99 | – | – | 8.76 | 1 to 44 | 0.001 to 0.99 | 0.001 to 0.999 | 1 to 44 | – | – | –
4 | CC(C)[C@@H](C(=O)N[C@@H](C(=O)N1CCC[C@H]1c1ncc(-c2cc3c4c(c2)OCc2cc(-c5cnc([C@@H]6CCCN6C(=O)[C@H](NC(=O)[C@H](C(C)C)N(C)C)c6ccccc6)[nH]5)cc(c2-4)OC3)[nH]1)c1ccccc1)N(C)C [Example 484] | – | > 44 | 0.001 to 0.99 | – | – | 0.953 | > 44 | 0.001 to 0.99 | 0.001 to 0.999 | > 44 | – | – | –
5 | COC[C@H]1C[C@@H](c2nc3ccc4cc(-c5ccc(-c6cnc([C@@H]7CCCN7C(=O)[C@H](N)c7ccccc7)[nH]6)cc5)ccc4c3[nH]2)N(C(=O)[C@@H](NC(=O)OC)C(C)C)C1 [Example 477] | – | 0.001 to 0.999 | 0.001 to 0.99 | – | – | 0.089 | 0.001 to 0.999 | 0.001 to 0.99 | 0.001 to 0.999 | 0.001 to 0.999 | – | – | –
6 | O=C(N[C@@H](C(=O)N1CCC[C@H]1c1ncc(-c2cc3c4c(c2)OCc2cc(-c5cnc([C@@H]6CCCN6C(=O)[C@H](NC(=O)C6CCC6)c6ccccc6)[nH]5)cc(c2-4)OC3)[nH]1)c1ccccc1)C1CCC1 [Example 449] | – | 0.001 to 0.999 | 0.001 to 0.99 | – | – | 0.139 | 0.001 to 0.999 | 0.001 to 0.99 | 0.001 to 0.999 | 0.001 to 0.999 | – | – | –
7 | COC(=O)N[C@H](C(=O)N1CCC[C@H]1c1ncc(-c2ccc3c(c2)COc2c-3ccc3c2ccc2nc([C@@H]4CCCN4C(=O)[C@@H](NC(=O)OC)C(C)C)[nH]c23)[nH]1)C(C)C [Example 400] | – | > 44 | 0.001 to 0.99 | – | – | 0.017 | > 44 | 0.001 to 0.99 | 0.001 to 0.999 | 0.001 to 0.999 | – | – | –
8 | COC(=O)N[C@H](C(=O)N1[C@@H](C)CC[C@H]1c1ncc(-c2cc3c4c(c2)OCc2cc(-c5cnc([C@@H]6CC[C@H](C)N6C(=O)[C@@H](NC(=O)OC)C(C)C)[nH]5)cc(c2-4)OC3)[nH]1)C(C)C [Example 460] | – | 0.001 to 0.999 | 0.001 to 0.99 | – | – | 0.018 | 1 to 44 | 0.001 to 0.99 | 0.001 to 0.999 | 0.001 to 0.999 | – | – | –
9 | CCO[C@H]1C[C@@H](c2ncc(-c3ccc(-c4ccc5cc(-c6cnc([C@@H]7CCCN7C(=O)[C@@H](NC(=O)OC)C(C)C)[nH]6)ccc5c4)cc3)[nH]2)N(C(=O)[C@H](NC(=O)OC)c2ccccc2)C1 [Example 157] | – | 1 to 44 | 0.001 to 0.99 | – | – | 0.008 | > 44 | – | – | – | 1 to 4.99 | 0.001 to 0.999 | 0.001 to 0.999
10 | COC(=O)N[C@H](C(=O)N1[C@@H]2C[C@@H]2C[C@H]1c1nc(Cl)c(-c2ccc(-c3ccc4c(ccc5nc([C@@H]6C[C@H]7C[C@H]7N6C(=O)[C@@H](NC(=O)OC)C(C)C)[nH]c54)c3)cc2F)[nH]1)C(C)C [Example 395] | – | > 44 | 0.001 to 0.99 | – | – | 0.004 | > 44 | 0.001 to 0.99 | 0.001 to 0.999 | 0.001 to 0.999 | – | – | –
11 | CCS[C@H]1C[C@@H](c2nc3ccc4cc(-c5ccc6c(ccc7nc([C@@H]8C[C@H](COC)CN8C(=O)[C@H](NC(=O)OC)c8ccccc8)[nH]c76)c5)ccc4c3[nH]2)N(C(=O)[C@@H](NC(=O)OC)C(C)C)C1 [Example 583] | 0.001 to 0.99 | 0.001 to 0.999 | 0.001 to 0.99 | 0.001 to 0.999 | 0.001 to 0.999 | 0.018 | 0.001 to 0.999 | – | – | – | – | – | –
12 | CCCC(=O)N[C@@H](C(=O)N1CCC[C@H]1c1ncc(-c2cc3c4c(c2)OCc2cc(-c5cnc([C@@H]6CCCN6C(=O)[C@H](NC(=O)CCC)c6ccccc6)[nH]5)cc(c2-4)OC3)[nH]1)c1ccccc1 [Example 470] | – | 0.001 to 0.999 | 0.001 to 0.99 | – | – | 0.148 | 0.001 to 0.999 | 0.001 to 0.99 | 0.001 to 0.999 | 0.001 to 0.999 | – | – | –
13 | COC[C@H]1C[C@@H](c2nc3ccc4cc(-c5ccc6c(ccc7nc([C@@H]8[C@@H]9CC[C@@H](C9)N8C(=O)[C@@H](NC(=O)OC)C(C)C)[nH]c76)c5)ccc4c3[nH]2)N(C(=O)[C@H](NC(=O)OC)c2ccccc2)C1 [Example 451] | – | 0.001 to 0.999 | 0.001 to 0.99 | – | – | 0.07 | 0.001 to 0.999 | 0.001 to 0.99 | 0.001 to 0.999 | 0.001 to 0.999 | – | – | –
14 | COC(=O)N[C@H](C(=O)N1CCC[C@H]1c1ncc(-c2ccc3cc(-c4ccc(-c5cnc([C@@H]6C[C@@H](C)CN6C(=O)[C@H](NC(=O)OC)c6ccccc6)[nH]5)cc4)ccc3c2)[nH]1)C(C)C [Example 159] | – | 1 to 44 | 0.001 to 0.99 | – | – | 0.006 | > 44 | – | – | – | 0.001 to 0.99 | 0.001 to 0.999 | 0.001 to 0.999
15 | COC[C@H]1C[C@@H](c2ncc(-c3ccc(-c4ccc5c(ccc6nc([C@@H]7CCCN7C(=O)[C@@H](NC(=O)OC)C(C)C)[nH]c65)c4)cc3)[nH]2)N(C(=O)[C@@H](NC(=O)OC)C(C)C)C1 [Example 441] | – | > 44 | 0.001 to 0.99 | – | – | 0.03 | 1 to 44 | 0.001 to 0.99 | 0.001 to 0.999 | 0.001 to 0.999 | – | – | –
16 | COC(=O)N[C@H](C(=O)N1CCC[C@H]1c1nc2ccc3cc(-c4ccc5cc(-c6[nH]c([C@@H]7CCCN7C(=O)[C@H](NC(=O)OC)c7ccccc7)nc6Cl)ccc5c4)ccc3c2[nH]1)C(C)C [Example 385] | – | 1 to 44 | 0.001 to 0.99 | – | – | 0.007 | 1 to 44 | 0.001 to 0.99 | 0.001 to 0.999 | 0.001 to 0.999 | – | – | –
17 | COC[C@H]1C[C@@H](c2nc3ccc4cc(-c5ccc6c(ccc7nc([C@@H]8[C@@H]9CC[C@@H](C9)N8C(=O)[C@H](NC(=O)OC)c8ccccc8)[nH]c76)c5)ccc4c3[nH]2)N(C(=O)[C@@H](NC(=O)OC)C(C)C)C1 [Example 452] | – | 1 to 44 | 0.001 to 0.99 | – | – | 0.047 | 0.001 to 0.999 | 0.001 to 0.99 | 0.001 to 0.999 | 0.001 to 0.999 | – | – | –
18 | COC[C@@H]1C[C@@H](c2nc3c([nH]2)-c2cc4c(cc2CC3)-c2ccc(-c3cnc([C@@H]5CCCN5C(=O)[C@@H](NC(=O)OC)C(C)C)[nH]3)cc2CO4)N(C(=O)[C@@H](NC(=O)OC)C(C)C)C1 [Example 493] | 0.001 to 0.99 | 0.001 to 0.999 | 0.001 to 0.99 | 0.001 to 0.999 | 0.001 to 0.999 | 0.03 | > 44 | – | – | – | – | – | –
19 | COC(=O)N[C@H](C(=O)N1CC2(C[C@H]1c1nc3ccc4cc(-c5ccc6c(ccc7nc([C@@H]8C[C@H]9C[C@H]9N8C(=O)[C@H](NC(=O)OC)c8ccccc8)[nH]c76)c5)ccc4c3[nH]1)OCCO2)C(C)C [Example 356] | – | 0.001 to 0.999 | 0.001 to 0.99 | – | – | 0.022 | 0.001 to 0.999 | 0.001 to 0.99 | 0.001 to 0.999 | 0.001 to 0.999 | – | – | –
20 | COC[C@H]1C[C@@H](c2ncc(-c3cc4c5c(c3)OCc3cc(-c6cnc([C@@H]7C[C@H](COC)CN7C(=O)[C@@H](NC(=O)OC)C(C)C)[nH]6)cc(c3-5)OC4)[nH]2)N(C(=O)[C@@H](NC(=O)OC)C(C)C)C1 [Example 513] | 0.001 to 0.99 | 1 to 44 | 0.001 to 0.99 | 0.001 to 0.999 | 0.001 to 0.999 | 0.068 | 1 to 44 | – | – | – | – | – | –
